The assay addresses Envelope glycoprotein gp160 (Human immunodeficiency virus 1, UniProt Q6QLK5). Description: cell-free HIV fusion peptide-binding blockers – biochemical, uHTS, fluorescence dequenching, […] (AID 1986).

The source made the active and inactive calls. No stated cut-off is given here; in the data, actives have a measured IC50 and inactives only a lower limit.

Chain of Envelope glycoprotein gp160 (Q6QLK5 whole entry, the tested form may be a part): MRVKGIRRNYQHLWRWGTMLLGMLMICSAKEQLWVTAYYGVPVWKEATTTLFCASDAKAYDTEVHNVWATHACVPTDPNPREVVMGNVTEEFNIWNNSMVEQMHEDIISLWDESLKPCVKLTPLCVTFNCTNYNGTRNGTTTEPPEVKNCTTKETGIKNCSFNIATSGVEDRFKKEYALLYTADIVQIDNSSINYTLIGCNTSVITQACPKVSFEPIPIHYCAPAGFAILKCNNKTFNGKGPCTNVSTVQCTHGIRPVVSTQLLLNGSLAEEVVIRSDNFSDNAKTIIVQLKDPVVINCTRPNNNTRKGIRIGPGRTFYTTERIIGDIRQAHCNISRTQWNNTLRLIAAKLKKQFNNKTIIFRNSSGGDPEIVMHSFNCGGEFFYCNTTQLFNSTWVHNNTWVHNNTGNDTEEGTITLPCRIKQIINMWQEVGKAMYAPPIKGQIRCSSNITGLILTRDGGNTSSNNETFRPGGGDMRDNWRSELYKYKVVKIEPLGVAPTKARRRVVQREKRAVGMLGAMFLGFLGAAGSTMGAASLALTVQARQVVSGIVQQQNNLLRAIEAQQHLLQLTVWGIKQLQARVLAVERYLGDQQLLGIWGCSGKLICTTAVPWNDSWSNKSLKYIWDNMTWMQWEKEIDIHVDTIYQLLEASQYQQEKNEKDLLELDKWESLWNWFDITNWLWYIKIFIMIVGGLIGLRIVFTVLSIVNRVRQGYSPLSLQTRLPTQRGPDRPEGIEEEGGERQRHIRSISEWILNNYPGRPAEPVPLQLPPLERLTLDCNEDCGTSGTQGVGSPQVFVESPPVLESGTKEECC

In general, IC50 refers to the concentration needed to halve the response being measured. As for `O=C(O)c1ccccc1-c1ccccc1C(=O)Nc1ccc(-c2nc3cc(Cl)ccc3o2)cc1`, the IC50 is 24.4 µM (active).
For the compound `COc1cc(/C=C2\C(=N)N3N=C(S(C)(=O)=O)SC3=NC2=O)ccc1OC(=O)c1cccs1`, the IC50 is 12.1 µM (active).

(Values after ChEMBL document CHEMBL1201862, “PubChem BioAssay data set” (2004).)
